The target in series [1] is T1, BRD4-BD1 (Homo sapiens, UniProt O60885).
T1 construct: purchased ReactionBiologyCorp; (RBC)
Kind of series: BRD4 AlphaScreen determination (BD1). In kind it is binding. As for the experimental part:
(1) 1× Assay buffer was prepared according to the kit requirements of ReactionBiologyCorp. (RBC). (2) Compound concentration gradient preparation: the test compounds were tested at final concentrations starting at 10 μM, with 10 concentrations at 3-fold dilution and single well test was set for each concentration. The positive control compound(+)-JQ-1 was tested at final concentrations starting at 1 μM, with 10 concentrations at 3-fold dilution, and duplicated well test was set for each concentration. The solution was gradient diluted to the corresponding 1000-fold final concentration in a 384-well Source plate, and then 20 nL of the solution was transferred to the 384-well reaction plate with Echo550 to be measured. 20 nL of 100% DMSO was transferred to the Max well, and the highest concentration of the positive compounds were transferred to the Min wells. […] (6) 5 μL of 4× peptide solution was added to each well of the reaction plate, centrifuged at 1000 rpm for 1 min. (7) 10 μL of the assay solution was added, centrifuged at 1000 rpm for 60 seconds, the solution was mixed with gentle shaking, and incubated at room temperature for 60 minutes. (8) Reading with EnVision. (9) The IC50 values of the compounds for protein binding inhibition was obtained by fitting the dose-effect curve with the analytical software GraphPad Prism 5. (See Table 1 for specific values)

In series [2] the test system is LNCAP, SKM-1, MOLM13, KASUMI 1, THP-1, KG-1. Kind of series: Proliferation inhibition of different cell lines: most sensitive lines. In kind it is cell-based. Particulars: some cell lines such as LNCAP, read-out: proliferation inhibitory activity IC50. As to the method: (§1) The proliferation inhibitory activity of some of the embodiment compounds against different cell lines such as LNCAP (+R1881), SKM-1, 22RV1, DU145, MOLM13, MDA-PCA-2b, KASUMI 1, THP-1, KG-1, IEC6, H1299, etc., was tested using similar methods in test embodiment 2 and in the literature.

Series [3] has as its system IEC6. Kind of series: Proliferation inhibition of IEC6 cells. In kind it is cell-based. Particulars: Rattus norvegicus, IEC-6; IEC6 cell line; read-out: proliferation inhibitory activity IC50. As for the experimental part:
as §1

In series [4] the test system is H1299. As to the kind of experiment: Proliferation inhibition of H1299 cells. In kind it is cell-based. Particulars: Homo sapiens, NCI-H1299; H1299 cell line; read-out: proliferation inhibitory activity IC50. As for the experimental part: as §1
Series [5] addresses T2, CYP2C8 (Homo sapiens, UniProt P10632).
T2 sequence (P10632 1-490): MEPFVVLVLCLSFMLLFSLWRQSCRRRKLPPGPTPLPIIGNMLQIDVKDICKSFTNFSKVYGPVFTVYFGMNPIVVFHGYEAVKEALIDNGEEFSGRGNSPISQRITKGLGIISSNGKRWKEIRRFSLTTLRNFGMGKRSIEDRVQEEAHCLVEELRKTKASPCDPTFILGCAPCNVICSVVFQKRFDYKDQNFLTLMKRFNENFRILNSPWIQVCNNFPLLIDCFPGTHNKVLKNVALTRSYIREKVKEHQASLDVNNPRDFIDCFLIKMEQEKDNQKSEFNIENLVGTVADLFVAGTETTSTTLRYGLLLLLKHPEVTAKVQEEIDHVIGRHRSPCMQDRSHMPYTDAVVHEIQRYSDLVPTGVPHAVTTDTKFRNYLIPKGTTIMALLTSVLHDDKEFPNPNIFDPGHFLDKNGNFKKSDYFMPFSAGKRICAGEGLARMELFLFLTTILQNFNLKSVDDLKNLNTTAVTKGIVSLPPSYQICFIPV
Kind of series: Direct inhibition test (DI test) in human liver microsomes, CYP2C8. In kind it is in vitro ADME. Particulars: read-out: inhibitory IC50 on CYP 2C8. As to the method:
(§2) (2) Direct inhibition test (DI test): 1004 of human liver microsomes (final concentration was 0.2 mg/mL) system was subjected to inhibition incubation directly, the system contains NADPH (final concentration was 1 mM), 10 μM compound, positive inhibitor cocktail (ketoconazole 10 μM, quinidine 10 μM, sulfapyrazole 100 μM, a-naphthoflavone 10 μM, tranylcypromine […]), negative control (0.1% DMSO BPS) and mixed probe substrate (midazolam 1004, testosterone 10004, dextromethorphan 10 μM, diclofenac 20 μM, phenacetin 100 μM, mephenytoin 100 μM), the reaction was terminated after incubation for 20 min. The relative enzyme activity was calculated by measuring the relative production of metabolites.
(Liver microsomes are vesicles of endoplasmic reticulum, rich in cytochrome P450 enzymes.)

Series [6] has as its target T3, CYP3A4 (Homo sapiens, UniProt P08684).
T3 construct: human liver microsomes (final concentration was 0.2 mg/mL); from tissue; host or cells: human liver microsomes
Kind of series: Direct inhibition test (DI test) in human liver microsomes, CYP3A4. In kind it is in vitro ADME. Particulars: read-out: inhibitory IC50 on CYP 3A4. As for the experimental part: as §2

Series [7] can be described thus: In vivo pharmacokinetics in mice. Particulars: male, Balb c, mouse, plasma, po, 5 mg/kg; for AUC / Cmax / half-life: gavage. As to the method: Six male SPF-grade SD rats or Balb c mice (Shanghai B&K laboratory animals) were divided into two groups and the test compounds were configured into suitable solutions or suspensions; one group was administered intravenously and one group was administered orally. Blood was collected by jugular vein puncture, and each sample was collected about 0.2 mL/time point, heparin sodium was used for anticoagulation, the blood collection time points were as follows: before administration and 5, 15 and 30 minutes, 1, 2, 4, 6, 8 and 24 h after administration, the blood sample was collected and placed on ice, centrifuged to separate the plasma (centrifugation conditions: 8000 rpm, 6 minutes, 2-8° C.), and the collected plasma was stored at −80° C. before analysis. The plasma samples were analyzed by LC-MS/MS.
According to the blood drug concentration data of the drug, the pharmacokinetic calculation software WinNonlin5.2 non-compartmental model was used to calculate the pharmacokinetic parameters AUC0-t, AUC0-∞, MRT0-∞, Cmax, Tmax, T1/2 and Vd and other parameters and their mean and standard deviation. In addition, the bioavailability (F) was calculated by the following formula.
For samples with a concentration lower than the lower limit of quantification, when calculating the pharmacokinetic parameters, the samples sampled before reaching Cmax should be calculated as zero, and samples sampled after reaching Cmax should be calculated as unquantifiable (BLQ).

Series [8] is described as follows: Metabolic stability in mouse liver microsomes. In kind it is in vitro ADME. Particulars: liver microsomes 0.5 mg/mL, NADPH, 1 μM compound, read-out: Mouse microsomal T1/2. As for the experimental part: (§3) (1) Metabolic stability test: 150 μL of liver microsomes (final concentration was 0.5 mg/mL) were subjected to metabolic stability incubation, the system containing NADPH (final concentration was 1 mM), 1 μM of the test compound and the positive control midazolam or the negative control atenolol, the reaction was terminated with acetonitrile containing tinidazole at 0 min, 5 min, 10 min, and 30 min, respectively, then the mixture was vortexed for 10 min, and centrifuged at 15000 rmp for 10 min, 50 μL of the supernatant was injected into 96 well. The metabolic stability of the compound was calculated by measuring the relative reduction of the original drug. (See Table 3 for specific values)

Series [9] in a line: Metabolic stability in dog liver microsomes. In kind it is in vitro ADME. Particulars: liver microsomes 0.5 mg/mL, NADPH, 1 μM compound, read-out: Dog microsomal T1/2. As to the method:
as §3

This is an account of results in US12459939B2 (SHANGHAI RINGENE BIOPHARMA CO., LTD., priority 2019, dated 2025).

By bioavailability is commonly meant dose-corrected exposure relative to a reference, in per cent. The low end stands for poor availability, the high end for good availability. By AUC is commonly meant the area under the concentration-time curve, a measure of exposure. What is called Cmax is the maximum level reached in the sampled fluid or tissue.

Like-named read-outs stand apart in the source and are kept apart here.

T3 sequence (P08684 whole entry): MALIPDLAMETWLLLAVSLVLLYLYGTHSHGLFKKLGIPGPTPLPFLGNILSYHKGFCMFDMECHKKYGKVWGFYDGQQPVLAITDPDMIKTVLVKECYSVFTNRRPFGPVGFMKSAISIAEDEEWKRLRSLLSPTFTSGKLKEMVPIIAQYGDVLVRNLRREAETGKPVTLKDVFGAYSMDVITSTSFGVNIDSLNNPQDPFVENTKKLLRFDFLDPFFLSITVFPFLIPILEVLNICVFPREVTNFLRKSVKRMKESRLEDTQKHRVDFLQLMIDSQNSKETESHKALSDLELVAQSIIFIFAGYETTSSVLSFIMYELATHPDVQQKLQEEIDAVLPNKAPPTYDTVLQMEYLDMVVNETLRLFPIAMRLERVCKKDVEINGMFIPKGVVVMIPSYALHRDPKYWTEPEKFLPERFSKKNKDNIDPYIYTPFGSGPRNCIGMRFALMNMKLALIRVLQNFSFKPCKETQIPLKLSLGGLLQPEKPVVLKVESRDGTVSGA

Consider `CCNC(=O)c1cc2c(=O)n(C)cc(-c3cc(C(C)(C)O)ccc3Oc3c(C)cc(F)cc3C)c2[nH]1` [compound 1, reference compound], for which the IC50 in series [1] was 40 nM; in series [2], under 100 nM; in series [3] it was over 1000 nM; in series [4] it was over 1000 nM; in [6] it was over 15000 nM. For the same molecule, the IC50 at 20 min in [5] was over 15000 nM. For the same molecule, the bioavailability in series [7] was over 40%. For the same molecule, the AUC in series [7] is over 5 µM·h. The highest concentration (Cmax) in series [7] is over 1500 nM. In addition, the half-life in series [7] was over 3 h.
For `Cc1cc(F)cc(C)c1Oc1ccc(C(C)(C)O)cc1-c1cn(C)c(=O)c2cc(C(=O)NC3CC(F)(F)C3)[nH]c12` [Embodiment 18, N-(3,3-difluorocyclobutyl)-7-(2-(4-fluoro-2,6-dimethylphenoxy)-5-(2-hydroxyprop-2-yl)phenyl)-5-methyl-4-oxo-4,5-dihydro-1H-pyrrolo[3,2-c] pyridine-2-amide], the IC50 was 117 nM in [1] (AlphaScreen, protein binding inhibition, read-out: BRD4-BD1 IC50); under 100 nM in series [2]; over 1000 nM in series [3]; over 1000 nM in [4]; over 15000 nM in series [6]. Also, the values for the half-life at 1 μM in series [8] and in series [9] were 1.27 h and 6.67 h, respectively. For the same molecule, the IC50 at 20 min in series [5] was over 15000 nM. For the same molecule, the bioavailability in [7] is over 40%. The same molecule yielded an AUC in series [7] of over 5 µM·h. Also, in series [7], the Cmax is over 1500 nM. For the same molecule, in series [7], the half-life was over 3 h.
